Publication PMC4597882 (Investigational new drugs, 2009)

Biological target: human TopoII (TopoIIα) (Homo sapiens, UniProt P11388)
Test: kinetoplast DNA decatenation assay
Type: biochemical

human TopoII (TopoIIα), sequence (P11388 whole entry): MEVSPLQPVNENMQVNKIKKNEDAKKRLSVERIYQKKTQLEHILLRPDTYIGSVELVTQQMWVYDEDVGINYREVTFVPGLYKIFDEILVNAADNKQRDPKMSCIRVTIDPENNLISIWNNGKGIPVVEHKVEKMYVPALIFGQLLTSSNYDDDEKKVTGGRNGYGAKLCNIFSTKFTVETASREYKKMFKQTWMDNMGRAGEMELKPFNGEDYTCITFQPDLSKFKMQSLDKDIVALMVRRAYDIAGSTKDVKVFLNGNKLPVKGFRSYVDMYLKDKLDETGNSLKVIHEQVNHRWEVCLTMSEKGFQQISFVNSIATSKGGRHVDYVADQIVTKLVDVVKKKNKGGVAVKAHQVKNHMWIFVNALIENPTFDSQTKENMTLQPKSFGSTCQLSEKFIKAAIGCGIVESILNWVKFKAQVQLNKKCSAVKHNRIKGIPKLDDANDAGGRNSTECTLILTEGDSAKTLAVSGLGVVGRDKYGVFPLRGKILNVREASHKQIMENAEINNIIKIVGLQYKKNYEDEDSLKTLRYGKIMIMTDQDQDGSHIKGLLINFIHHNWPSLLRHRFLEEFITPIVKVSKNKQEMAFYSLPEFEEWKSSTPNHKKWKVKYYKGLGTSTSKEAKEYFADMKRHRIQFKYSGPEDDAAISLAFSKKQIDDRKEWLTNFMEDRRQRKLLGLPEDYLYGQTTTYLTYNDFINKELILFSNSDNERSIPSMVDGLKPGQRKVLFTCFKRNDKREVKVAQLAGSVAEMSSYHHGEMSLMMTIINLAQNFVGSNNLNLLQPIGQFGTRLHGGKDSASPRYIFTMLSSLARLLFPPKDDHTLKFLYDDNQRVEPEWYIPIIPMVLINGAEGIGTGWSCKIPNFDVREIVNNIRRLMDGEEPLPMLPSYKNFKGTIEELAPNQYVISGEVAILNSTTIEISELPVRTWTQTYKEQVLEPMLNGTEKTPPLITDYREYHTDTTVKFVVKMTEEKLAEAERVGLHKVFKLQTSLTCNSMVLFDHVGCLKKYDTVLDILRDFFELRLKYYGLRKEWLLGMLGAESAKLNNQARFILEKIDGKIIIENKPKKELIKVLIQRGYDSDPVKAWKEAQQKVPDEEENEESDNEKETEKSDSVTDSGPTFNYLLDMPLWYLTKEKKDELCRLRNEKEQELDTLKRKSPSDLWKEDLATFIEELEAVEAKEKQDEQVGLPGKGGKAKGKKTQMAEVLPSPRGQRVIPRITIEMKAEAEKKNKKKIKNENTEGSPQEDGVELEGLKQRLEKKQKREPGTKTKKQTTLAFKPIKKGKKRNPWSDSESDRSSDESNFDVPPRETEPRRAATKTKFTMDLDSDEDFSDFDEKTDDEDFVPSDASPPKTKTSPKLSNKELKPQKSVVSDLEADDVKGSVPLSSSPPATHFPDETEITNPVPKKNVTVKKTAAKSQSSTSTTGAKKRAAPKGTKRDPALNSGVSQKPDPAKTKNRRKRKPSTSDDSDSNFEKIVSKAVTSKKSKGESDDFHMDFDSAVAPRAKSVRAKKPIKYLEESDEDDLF

IC50: ~80 µM
SMILES: CC(=O)O[C@@H]1[C@@H](C)O[C@@H](c2ccc3c(c2O)[C@@H](O)[C@]24O[C@@]2(C3=O)[C@@]2(O)C(=O)C=C(C)C[C@@]2(O)C[C@@H]4O)C[C@H]1OC(=O)/C=C/C=C/C=C/C=C/C(=O)Nc1c(O)c2ccc(O)c(Cl)c2oc1=O [SD8, Simocyclinone D8]
